From patent publication US12459951B2, “Compounds that interact with RAS superfamily proteins for treatment of cancers, inflammatory diseases, rasopathies, and fibrotic disease” (SHY Therapeutics, LLC, priority 2022, dated 2025)
Counter-ions that a name gives are not always drawn. Like-named read-outs stand apart in the source and are kept apart here.

Legend:
Akt phosphorylation = test: Akt Phosphorylation Assay (western blot), Panc-1; assay type: cell-based, human; conditions: at 10 μM, * = activation
In short: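 Phospho-Akt (Ser473) was measured by western blot in lysates of KRas G12D Panc-1 cells exposed to test compound for 6 h at 37 °C, either at 10 μM final with 0.3% DMSO or as serial dilutions for IC50. One format used overnight 0.5% FBS starvation followed by a 15 min pulse of 1.5 ng/ml EGF. The other used cells in 10% FBS with no stimulation.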

[1] = system: MiaPaca-2 (expressing KRAS G12C mutant); test: Proliferation Assay (Cell Viability Assay); assay type: cell-based; conditions: Homo sapiens, MIA PaCa-2
In short: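 After 2–4 days' exposure at 37 °C, 5% CO2 to a single 10 μM final concentration or a dilution series (IC50), percent proliferation inhibition was derived from CellTiter 96 Aqueous One viability readings. The medium contained 0.3% DMSO and 10% FBS. KRAS G12C MiaPaca-2 cells were plated at 2000–5000/well the day before.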

[2] = read-out: Proliferation in MiaPaca-2: IC50
[3] = Proliferation assay, MiaPaca-2, read-out: MiaPaca-2 IC50 (nM) Pancreatic

| SMILES | IC50 [1, 2] [nM] | IC50 [1, 3] [nM] | % inh of Akt phosphorylation in Panc-1 (Akt phosphorylation) |
| --- | --- | --- | --- |
| COCCO[C@H]1C[C@H](Nc2nc(-c3nccn3C)nn3cc(-c4ccn(C(C)C)n4)c(C)c23)C1 [Compound 92, 6-(1-Isopropyl-1H-pyrazol-3-yl)-N-((1r,3r)-3-(2-methoxyethoxy)cyclobutyl)-5-methyl-2-(1-methyl-1H-imidazol-2-yl)pyrrolo[2,1-f][1,2,4]triazin-4-amine] | > 1000 |  | A* (1-25% activation) |
| Cc1c(-c2ccn(C(C)C)n2)cn2nc(-c3nccn3C)nc(Nc3ccn(C4CC4)n3)c12 [Compound 84, N-(1-Cyclopropyl-1H-pyrazol-3-yl)-6-(1-isopropyl-1H-pyrazol-3-yl)-5-methyl-2-(1-methyl-1H-imidazol-2-yl)pyrrolo[2,1-f][1,2,4]triazin-4-amine] | < 150 | 1 to 10 | D* (85-100% activation) |
| CCc1nc(Nc2nc(-c3nccn3C)nn3cc(-c4ccn(C(C)C)n4)c(C)c23)nn1C [Compound 76, N-(5-Ethyl-1-methyl-1H-1,2,4-triazol-3-yl)-6-(1-isopropyl-1H-pyrazol-3-yl)-5-methyl-2-(1-methyl-1H-imidazol-2-yl)pyrrolo[2,1-f][1,2,4]triazin-4-amine] | < 150 |  | D* (85-100% activation) |
| Cc1c(-c2ccn(C(C)C)n2)cn2nc(-c3nccn3C)nc(Nc3cc4n(n3)CCO4)c12 [Compound 91, N-(6-(1-Isopropyl-1H-pyrazol-3-yl)-5-methyl-2-(1-methyl-1H-imidazol-2-yl)pyrrolo[2,1-f][1,2,4]triazin-4-yl)-2,3-dihydropyrazolo[5,1-b]oxazol-6-amine] | < 150 | 10 to 50 | D* (85-100% activation) |
| COc1nccc(Nc2nc(-c3nccn3C)nn3cc(-c4ccn(C(C)C)n4)c(C)c23)n1 [Compound 86, 6-(1-Isopropyl-1H-pyrazol-3-yl)-N-(2-methoxypyrimidin-4-yl)-5-methyl-2-(1-methyl-1H-imidazol-2-yl)pyrrolo[2,1-f][1,2,4]triazin-4-amine] | 150 to 500 |  | D* (85-100% activation) |
| COCCNc1nc(-c2nccn2C)nn2cc(-c3ccn(C(C)C)n3)c(C)c12 [Compound 5, 6-(1-Isopropyl-1H-pyrazol-3-yl)-N-(2-methoxyethyl)-5-methyl-2-(1-methyl-1H-imidazol-2-yl)pyrrolo[2,1-f][1,2,4]triazin-4-amine] | > 1000 |  | 0 (0% inhibition) |
| COCc1csc(Nc2nc(-c3nccn3C)nn3cc(-c4ccn(C(C)C)n4)c(C)c23)n1 [Compound 79, N-(6-(1-Isopropyl-1H-pyrazol-3-yl)-5-methyl-2-(1-methyl-1H-imidazol-2-yl)pyrrolo[2,1-f][1,2,4]triazin-4-yl)-4-(methoxymethyl)thiazol-2-amine] | < 150 |  | D* (85-100% activation) |
| Cc1c(-c2ccn(C(C)C)n2)cn2nc(-c3nccn3C)nc(Nc3noc(C4CC4)n3)c12 [Compound 75, 5-Cyclopropyl-N-(6-(1-isopropyl-1H-pyrazol-3-yl)-5-methyl-2-(1-methyl-1H-imidazol-2-yl)pyrrolo[2,1-f][1,2,4]triazin-4-yl)-1,2,4-oxadiazol-3-amine] | > 1000 |  | A* (1-25% activation) |

Further lines, with some results ahead:

| IC50 [1, 2] [nM] | IC50 [1, 3] [nM] | SMILES | % inh of Akt phosphorylation in Panc-1 (Akt phosphorylation) |
| --- | --- | --- | --- |
| 150 to 500 |  | COc1cccc(-c2cn3nc(-c4nccn4C)nc(N[C@@H]4CC[C@@H](OC)C4)c3c2-c2ccccc2)c1C (racemic) [Compound 270, rac 6-(3-Methoxy-2-methylphenyl)-N-((1R,3R)-3-methoxycyclopentyl)-2-(1-methyl-1H-imidazol-2-yl)-5-phenylpyrrolo[2,1-f][1,2,4]triazin-4-amine] | D (85-100% inhibition) |
| > 1000 |  | CO[C@H]1CC[C@@H](Nc2nc(-c3nccn3C)nn3cc(-c4ccn(C(C)C)n4)c(-c4ccccc4)c23)C1 (racemic) [Compound 18, rac 6-(1-Isopropyl-1H-pyrazol-3-yl)-N-((1R,3S)-3-methoxycyclopentyl)-2-(1-methyl-1H-imidazol-2-yl)-5-phenylpyrrolo[2,1-f][1,2,4]triazin-4-amine hydrochloride] | D* (85-100% activation) |
| > 1000 |  | COC1CCCN(c2nc(-c3nccn3C)nn3cc(-c4ccn(C(C)C)n4)c(C)c23)C1 (racemic) [Compound 4, rac 6-(1-Isopropyl-1H-pyrazol-3-yl)-5-methyl-2-(1-methyl-1H-imidazol-2-yl)-4-(3-(oxo-γ6-methyl)piperidin-1-yl)pyrrolo[2,1-f][1,2,4]triazine] | 0 (0% inhibition) |
| > 1000 |  | CC(C)n1ccc(-c2cn3nc(-c4nccn4C)nc(O)c3c2-c2ccccc2)n1 [Compound 17, 6-(1-Isopropyl-1H-pyrazol-3-yl)-2-(1-methyl-1H-imidazol-2-yl)-5-phenylpyrrolo[2,1-f][1,2,4]triazin-4-ol] | D (85-100% inhibition) |
